Measured values taken from PubChem BioAssay (NCI).
Where “and” joins values, the source holds several entries; their conditions need not be identical. Equal values may be shown once.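 A five-concentration, 48-hour dose response in 96-well plates underlies each endpoint, interpolated linearly between surrounding concentrations. The concentration for 50% growth inhibition is given as GI50. TGI marks complete inhibition of growth.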

Experiments:
Experiment in all cases: growth of human tumour cells (NCI), 48 h
LOX IMVI melanoma = tested on: LOX IMVI melanoma
U251 CNS = tested on: U251 CNS
EKVX NSCLC = tested on: EKVX NSCLC
A549 NSCLC = tested on: A549 NSCLC
SK-MEL-28 melanoma = tested on: SK-MEL-28 melanoma
SNB-75 CNS = tested on: SNB-75 CNS
RXF 393 renal = tested on: RXF 393 renal
NCI-H226 lung = tested on: NCI-H226 lung
MOLT-4 leukemia = tested on: MOLT-4 leukemia
MDA-MB-231 breast = tested on: MDA-MB-231 breast

Row | Compound | TGI (LOX IMVI melanoma) | TGI (U251 CNS) | TGI (EKVX NSCLC) | TGI (A549 NSCLC) | TGI (SK-MEL-28 melanoma) | TGI (SNB-75 CNS) | TGI (RXF 393 renal) | TGI (NCI-H226 lung) | TGI (MOLT-4 leukemia) | GI50 (LOX IMVI melanoma) | GI50 (U251 CNS) | GI50 (EKVX NSCLC) | GI50 (A549 NSCLC) | GI50 (SK-MEL-28 melanoma) | GI50 (MDA-MB-231 breast) | TGI (MDA-MB-231 breast) | GI50 (SNB-75 CNS) | GI50 (RXF 393 renal) | GI50 (NCI-H226 lung) | GI50 (MOLT-4 leukemia)
1 | O/N=C/c1ccc(O)c(O)c1 | > 100 µM | > 100 µM | > 100 µM | > 100 µM | > 100 µM | > 100 µM | > 100 µM | > 100 µM | > 100 µM | – | – | – | – | – | – | – | – | – | – | –
2 | CCCCn1c(=O)c(/C=C/C(=O)/C=C/c2cc3ccccc3n(CCCC)c2=O)cc2ccccc21 | 2.7 µM | 2.24 µM | 4.42 µM | 3.17 µM | 3.48 µM | 8.12 µM | 3.32 µM | 6 µM | – | 1.24 µM | 1.03 µM | 1.88 µM | 1.56 µM | 1.81 µM | 1.84 µM | 3.37 µM | 2.8 µM | 1.8 µM | 2.51 µM | –
3 | N#Cc1cc(S(=O)(=O)Nc2nc3ccccc3o2)c(SCc2ccccc2)cc1Cl | 36.5 µM | 34 µM | 42.7 µM | 55 µM | 40.4 µM | 59.3 µM | 53.1 µM | 80.8 µM | – | 18.7 µM | 18.9 µM | 18.4 µM | 22.5 µM | 18.9 µM | 24.8 µM | 62.9 µM | 25.5 µM | 23.9 µM | 31.6 µM | –
4 | NC(Cc1ccccc1)c1nccs1 (centres undefined) | > 100 µM | > 100 µM | > 100 µM | > 100 µM | > 100 µM | > 100 µM | – | > 100 µM | > 100 µM | – | – | – | – | – | – | > 100 µM | – | – | – | –
5 | CC(C)(C)OC(=O)N[C@@H](Cc1ccccc1)C(=O)N(Cc1ccccc1)C1(C(=O)NCc2ccccc2)CCN(Cc2ccccc2)CC1 | 21.2 µM | > 100 µM | – | > 100 µM | – | > 100 µM | > 100 µM | > 100 µM | 6.33 µM | 3.65 µM | 3.19 µM | – | 3.85 µM | – | 3.01 µM | 79 µM | 2.97 µM | 3.12 µM | 3.2 µM | 1.83 µM
6 | CN1CCN(CCCOc2cc(O)c3c(=O)cc(-c4ccccc4)oc3c2)CC1 | 28.4 µM | 29 µM | > 100 µM | 91.1 µM | 30.6 µM | – | 84 µM | 37 µM | 38.8 µM | 14.1 µM | 15.1 µM | 37.6 µM | 28.8 µM | 16.1 µM | 16.3 µM | 31.7 µM | – | 30.2 µM | 19.5 µM | 17.3 µM
7 | CC1c2[nH]c3ccccc3c2CCN1O (centres undefined) | > 100 µM | > 100 µM | > 100 µM | > 100 µM | > 100 µM | > 100 µM | > 100 µM | > 100 µM | > 100 µM | – | – | – | – | – | – | – | – | – | – | –
8 | CCn1c2ccccc2c2cc(C(=O)c3ccc(C)c4ccccc34)ccc21 | 1.62 µM | 1.52 µM | > 100 µM | > 100 µM | > 100 µM | – | 2.71 µM | > 100 µM | > 100 µM | 0.323 µM | 0.278 µM | 0.528 µM | 0.421 µM | 0.477 µM | 0.824 µM | > 100 µM | – | 0.35 µM | 1.91 µM | 0.0578 µM
9 | COC(=O)C1CCc2nnc(-c3ccccc3)n21 (centres undefined) | > 100 µM | > 100 µM | > 100 µM | > 100 µM | > 100 µM | > 100 µM | > 100 µM | > 100 µM | > 100 µM | – | – | – | – | – | – | – | – | – | – | –
10 | COc1cc2cnc3c4cc(OCc5ccccc5)ccc4ccc3c2cc1OC | > 100 µM | > 100 µM | > 100 µM | > 100 µM | > 100 µM | 18.7 µM | 47.6 µM | 72.6 µM | 30.9 µM | – | – | – | – | – | – | – | – | – | – | –
11 | CC1=NOC(=O)/C1=C/c1ccc2c(c1)OCO2 | 36.1 µM | 38 µM | > 100 µM | > 100 µM | > 100 µM | 57.5 µM | 30.7 µM | 49.8 µM | – | – | – | – | – | – | – | 53.9 µM | – | – | – | –
12 | COc1ccc(OC(C)C(=O)O)c2c(=O)ccccc12 (centres undefined) | > 100 µM | > 100 µM | > 100 µM | > 100 µM | > 100 µM | > 100 µM | > 100 µM | > 100 µM | > 100 µM | – | – | – | – | – | – | – | – | – | – | –
13 | NC(=O)c1ccc(Cl)c([N+](=O)[O-])c1 | > 100 µM | > 100 µM | > 100 µM | > 100 µM | > 100 µM | > 100 µM | > 100 µM | > 100 µM | > 100 µM | – | – | – | – | – | – | – | – | – | – | –
14 | C=C1C[C@@H]2C[C@@H](C)CC(O)[C@]2(CCCN)C1O (some centres undefined) | > 100 µM | > 100 µM | > 100 µM | > 100 µM | > 100 µM | > 100 µM | > 100 µM | > 100 µM | > 100 µM | – | – | – | – | – | – | – | – | – | – | –
15 | COC(=O)[C@H](Cc1cn(C)cn1)NC(=O)[C@H](Cc1ccccc1)NC(=O)Nc1cc(C(F)(F)F)cc(C(F)(F)F)c1 | 9.27 µM and 20.6 µM | 24.6 µM | – | 31.6 µM | 35.2 µM | 30 µM | – | 43.8 µM | 28.9 µM | 2.5 µM and 7.46 µM | 11.9 µM | – | 16.1 µM | 17.9 µM | 5.03 µM and 7.85 µM | 21.2 µM | 15.6 µM | – | 19.8 µM | 5.87 µM and 11.4 µM
16 | COC(=O)N/N=C(\C)CC(=O)Nc1ccc(Cl)cc1 | > 100 µM | > 100 µM | > 100 µM | > 100 µM | > 100 µM | > 100 µM | > 100 µM | > 100 µM | > 100 µM | – | – | – | – | – | – | – | – | – | – | –
17 | C[N+](C)=c1ccc2nc3c(cc(NCCCNc4cc5oc6cc(=[N+](C)C)ccc-6nc5c5ccccc45)c4ccccc43)oc-2c1 | – | 5.87 µM | 18.5 µM | – | 14.7 µM | 3.64 µM | 37.5 µM | 63.7 µM | 25 µM | – | 2.36 µM | 4.77 µM | – | 3.77 µM | 1.33 µM | 4.83 µM | 1.56 µM | 6.04 µM | 22.1 µM | 3 µM
18 | CO[C@@]1(c2ccccc2)O[C@H]2OCCC2[C@H]1c1ccc(Cl)cc1 (some centres undefined) | 77.4 µM | 94 µM | 64.5 µM | > 100 µM | > 100 µM | > 100 µM | 57.4 µM | > 100 µM | 92.7 µM | – | – | – | – | – | – | – | – | – | – | –
